# What was measured:
# [1] = tested on: wound chambers in healing impaired rats (granulation tissue formation); assay: Wound chamber model in cortisone acetate treated (healing impaired) rats, I.M. injection; assay type: in vivo
# Experimental: (§1) The chambers were removed at day 15 and 29.
# (§2) After implantation of the chambers, the rats were subsequently injected with Cortisone Acetate (10 mg I.M. daily, Cortone Acetate, Merck) to impair the healing response. After allowing for encapsulation of the chambers, the rats were injected I.M. (in the opposite leg from the cortisone injection) with 0.1 ml of either a saline solution containing 10 mg/ml of glycyl-L-histidyl-L-lysine:copper(II) (2:1 molar ratio) or saline.
# as §2, with “containing 19” for “containing 10”, “of glycyl-L-histidyl-L-lysyl-valyl-phenylalanly-valine:copper(II)” for “of glycyl-L-histidyl-L-lysine:copper(II) (2:1 molar ratio)”
# as §2, with “the copper(II) compounds listed at the dosage specified in Table 4,” for “either a saline solution containing 10 mg/ml of glycyl-L-histidyl-L-lysine:copper(II) (2:1 molar ratio)”
# [2] = tested on: wound chambers in rats (granulation tissue formation); assay: Wound chamber model in rats, compounds injected directly into the wound chambers;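 also: compounds given as 0.2 ml injections into encapsulated wound chambers in rats on set days, chambers removed at day 15 or 29, contents measured per chamber versus saline-injected chambers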
# [3] = tested on: 15 mm full-thickness excision wound in mice; assay: Full thickness defect model in mice, I.M. injection; assay type: in vivo
# Excerpt: Following an acclimation period, mice are anesthetized with I.P. pentobarbital and prepped for surgery. The hair is plucked from a wide area of the mid-back. An ink stamp bearing a 15 mm diameter circle is used to mark the skin for subsequent full-thickness excision. Tissue is excised to the fascia underlying the paniculus carnosus muscle. Following excision, hemostasis is achieved through irrigation and the use of sterile gauze pads.
# Mice received a first I.M. treatment of GHL-Cu following hemostasis, Day 0. Injections consisted of 0.1 mg of GHL-Cu in a volume of 0.1 ml. Mice used as controls received injections of saline. Injections were repeated on days 1, 2, 3, 6, 7, 8, 9, 10, and 13.
# The residual wound surface area is measured on days 1, 7, 10 and 14. The final comparison is performed on Day 14. Table 5 below illustrates that I.M. injection of GHL-Cu resulted is an approximately 75% smaller residual wound size at 14 days.
# [4] = tested on: wound chambers in normal rats (granulation tissue formation); assay: Subcutaneous stainless steel wound chamber model, I.M. injection, normal rats; assay type: in vivo
# Excerpt: The subcutaneous implantation of stainless steel wound chambers in rats provides a model for the healing of open cavity wounds. This model in many ways mimics the early events in the formation of granulation tissue found in many types of wounds and surgical defects. Implantation of these chambers triggers a series of responses which reflect the series of phases involved in wound healing--fibrin clot formation, infiltration of white cells, collagen synthesis, and new blood vessel formation.
# as §1
# After allowing for encapsulation of the chambers, the rats were injected I.M. with 0.1 ml of either a saline solution containing 10 mg/ml glycyl-L-histidyl-L-lysine:copper(II) (2:1 molar ratio) or saline.
# [5] = tested on: 2.0x2.0 cm full thickness skin defects in pigs; assay: Full thickness skin defects in pigs, I.M. injection, punch biopsy analysis; assay type: in vivo, domestic pigs; details: pig
# Experimental: The systemic application of GHL-Cu increases the formation of granulation tissue in pigs. Two domestic pigs approximately 29-31 pounds, about 8 weeks old, were anesthetized with Ketamine (30 mg/Kg) and Rompum (5 mg/Kg). A series of full thickness skin defects measuring 2.0×2.0 cm were created on the backs of each pig and bandaged with gauze and adhesive tape. One pig was treated with I.M. injections of strerile saline and the other with a solution of GHL-Cu (30 mg/ml). Each pig received 1.0 ml injections of either the saline or GHL-Cu solution on days 0, 1, 2, 5, 6, 7, 8, 9, 12, and 13.
# Punch biopsy samples were taken from the centers of the healing wounds on day 7 and day 12 and analyzed for the biochemical parameters of granulation tissue and described in Example 10.
# [6] = Table 8 part A, 2.0 mg/injection, saline control 4.5 ± 1.0
# [7] = Table 8 part A, 2.0 mg/injection, saline control 49 ± 9
# [8] = Table 8 part A, 2.0 mg/injection, saline control 75 ± 11
# [9] = Table 8 part A, 2.0 mg/injection, saline control 703 ± 244
# [10] = healing impaired (cortisone) rats, 0.3 mg/injection, saline control 502 ± 145
# [11] = cortisone treated rats, 0.1 ml of 10 mg/ml
molecule,measurement,setting,value
"O=S(=O)([O-])[O-].[Cu+2] [CuSO4, cupric sulfate]",COLLAGEN,"[1]; healing impaired (cortisone) rats, 0.2 mg/injection, saline control 502 ± 145",976 ± 343 μg HP/chamber
alanylL-histidyl-L-lysine:copper(II) [AHL:Cu],ANGIOGENESIS,[2]; [6],10.2 ± 6.5 Units AP/chamber
same,PROTEIN,[2]; [7],46 ± 14 mg/chamber
same,WET WEIGHT,[2]; [8],74 ± 22 mg
same,COLLAGEN,[2]; [9],1565 ± 520 μg HP/chamber
carnosine:copper(II) [CARN:Cu],COLLAGEN,[1]; [10],832 ± 174 μg HP/chamber
citrate:copper(II) [CITRATE:Cu],COLLAGEN,"[1]; healing impaired (cortisone) rats, 0.5 mg/injection, saline control 502 ± 145",976 ± 343 μg HP/chamber
glycyl-L-histidyl-L-lysine:copper(II) [GHL:Cu],healing response in healing impaired animals relative to normal animals,[1]; [11],increased the healing response in the healing impaired animals to the level found in the normal animals
same,level of all the biochemical parameters examined compared to control animals,[1]; [11],increased
same,ANGIOGENESIS,"[1]; healing impaired (cortisone) rats, 1.0 mg/injection, saline control 0.5 ± 0.3",1.5 ± 1.6 Units AP/chamber
same,PROTEIN,"[1]; healing impaired (cortisone) rats, 1.0 mg/injection, saline control 11 ± 8",25 ± 9 mg/chamber
same,DRY WEIGHT,"[1]; healing impaired (cortisone) rats, 1.0 mg/injection, saline control 20 ± 12",35 ± 13 mg
same,COLLAGEN,"[1]; healing impaired (cortisone) rats, 1.0 mg/injection, saline control 187 ± 101",366 ± 74 μg HP/chamber
same,RESIDUAL WOUND SURFACE AREA DAY 14,"[3]; 0.1 mg in 0.1 ml per injection, saline control 1.78 ± 2.56",0.42 ± 0.60 SQ MM
same,smaller residual wound size at 14 days vs saline,"[3]; 0.1 mg per injection, day 14",approximately 75%
same,ANGIOGENESIS,"[4]; 1.0 mg/injection, saline control 2.2 ± 1.1",3.0 ± 1.5 Units AP/chamber
same,PROTEIN,"[4]; 1.0 mg/injection, saline control 36 ± 13",55 ± 19 mg/chamber
same,DRY WEIGHT,"[4]; 1.0 mg/injection, saline control 51 ± 15",75 ± 25 mg
same,COLLAGEN,"[4]; 1.0 mg/injection, saline control 376 ± 86",1273 ± 711 μg HP/chamber
same,biochemical healing parameters (vs saline),[4]; 0.1 ml of 10 mg/ml,significantly increased
same,WET WEIGHT,"[5]; 30 mg/injection, punch biopsies (day 7 and day 12), saline control 121 ± 7",148 ± 11 mg
same,ANGIOGENESIS,"[5]; 30 mg/injection, punch biopsies, saline control 0.4 ± 0.1",2.2 ± 1.2 Units AP/chamber
same,COLLAGEN,"[5]; 30 mg/injection, punch biopsies, saline control 628 ± 182",855 ± 20 μg HP/chamber
same,visual examination of granulation tissue level,"[5]; 30 mg/injection, saline treated animal: level below the skin",raised above the level of the surrounding skin
same,"weight, collagen content, and angiogenesis in the biopsies",[5]; 1.0 ml of 30 mg/ml per injection,significant increase
glycyl-L-histidyl-L-lysyl-L-valyl-L-phenylalanyl-L-valine:copper(II) [GHLVFV:Cu],ANGIOGENESIS,"[1]; cortisone treated rats, 1.9 mg/injection, saline control 1.9 ± 0.4",6.9 ± 6.1 Units AP/chamber
same,PROTEIN,"[1]; cortisone treated rats, 1.9 mg/injection, saline control 32 ± 4",45 ± 15 mg/chamber
same,DRY WEIGHT,"[1]; cortisone treated rats, 1.9 mg/injection, saline control 65 ± 8",84 ± 28 mg
same,COLLAGEN,"[1]; cortisone treated rats, 1.9 mg/injection, saline control 502 ± 145",1279 ± 1001 μg HP/chamber
same,level of all the biochemical parameters examined,"[1]; cortisone treated rats, 0.1 ml of 19 mg/ml",increased
glycylL-(3-methyl)histidyl-L-lysine:copper(II) [G(3-Me)HL:Cu],ANGIOGENESIS,[2]; [6],8.9 ± 5.5 Units AP/chamber
same,PROTEIN,[2]; [7],75 ± 9 mg/chamber
same,WET WEIGHT,[2]; [8],125 ± 15 mg
same,COLLAGEN,[2]; [9],1996 ± 288 μg HP/chamber
glycylL-histidyl-L-lysine octyl amide:copper(II) [GHL-Octyl Amide:Cu],ANGIOGENESIS,"[2]; Table 7 part A, 2.6 mg/injection, saline control 5.3 ± 3.6",6.7 ± 1.3 Units AP/chamber
same,PROTEIN,"[2]; Table 7 part A, 2.6 mg/injection, saline control 47 ± 20",47 ± 6 mg/chamber
same,WET WEIGHT,"[2]; Table 7 part A, 2.6 mg/injection, saline control 85 ± 30",101 ± 8 mg
same,COLLAGEN,"[2]; Table 7 part A, 2.6 mg/injection, saline control 335 ± 132",1339 ± 265 μg HP/chamber
glycylL-histidyl-L-lysine octyl ester:copper(II) [GHL-Octyl Ester:Cu],ANGIOGENESIS,"[2]; Table 7 part B, 2.6 mg/injection, saline control 4.5 ± 1.0",12.4 ± 3.6 Units AP/chamber
same,PROTEIN,"[2]; Table 7 part B, 2.6 mg/injection, saline control 49 ± 9",66 ± 8 mg/chamber
same,WET WEIGHT,"[2]; Table 7 part B, 2.6 mg/injection, saline control 75 ± 11",106 ± 8 mg
same,COLLAGEN,"[2]; Table 7 part B, 2.6 mg/injection, saline control 703 ± 244",1918 ± 565 μg HP/chamber
glycylL-histidyl-L-lysyl-L-tryptophan:copper(II) [GHLW:Cu],ANGIOGENESIS,"[2]; Table 7 part A, 3.1 mg/injection, saline control 5.3 ± 3.6",7.7 ± 1.6 Units AP/chamber
same,WET WEIGHT,"[2]; Table 7 part A, 3.1 mg/injection, saline control 85 ± 30",94 ± 14 mg
same,COLLAGEN,"[2]; Table 7 part A, 3.1 mg/injection, saline control 335 ± 132",1508 ± 128 μg HP/chamber
glycylL-histidyl-caprolactam:copper(II) [GHCap:Cu],ANGIOGENESIS,[2]; [6],10.7 ± 3.1 Units AP/chamber
same,PROTEIN,[2]; [7],60 ± 11 mg/chamber
same,WET WEIGHT,[2]; [8],98 ± 13 mg
same,COLLAGEN,[2]; [9],1699 ± 365 μg HP/chamber
glycylglycyl-glycine:copper(II) [GGG:Cu],COLLAGEN,[1]; [10],829 ± 210 μg HP/chamber
histidylglycyl-L-lysine:copper(II) [HGL:Cu],ANGIOGENESIS,[2]; [6],10.4 ± 3.9 Units AP/chamber
same,PROTEIN,[2]; [7],58 ± 9 mg/chamber
same,WET WEIGHT,[2]; [8],104 ± 13 mg
same,COLLAGEN,[2]; [9],2025 ± 456 μg HP/chamber
lysylL-histidyl-glycyl-L-valyl-L-phenylalanyl-L-valine:copper(II) [LHGVFV:Cu],ANGIOGENESIS,"[2]; Table 8 part B, 3.8 mg/injection, saline control 5.3 ± 3.6",8.0 ± 1.3 Units AP/chamber
same,PROTEIN,"[2]; Table 8 part B, 3.8 mg/injection, saline control 47 ± 20",37 ± 9 mg/chamber
same,WET WEIGHT,"[2]; Table 8 part B, 3.8 mg/injection, saline control 85 ± 30",95 ± 18 mg
same,COLLAGEN,"[2]; Table 8 part B, 3.8 mg/injection, saline control 335 ± 132",1630 ± 275 μg HP/chamber

# — US5164367A, “Method of using copper(II) containing compounds to accelerate wound healing” (ProCyte Corporation, priority 1990, dated 1992)
